US10806121B2, “Animal litter containing a pheromone composition” (Sergeant's Pet Care Products, LLC, priority 2014, dated 2020)

Tested on: cats
Assay: Study 2: behavior scores of paired unfamiliar cats, CON litter Day 1 then RP litter Day 2
Format: in vivo
Parameters: litter box weight, RP after / litter box weight, Change (RP): unit not given here
Settings: for Average aggression score by pair, Day 2 (RP): total possible 48
Description: During the studies, cat behavior was captured on video for the duration of the 24- or 48-hour period depending on the specific study. Red lights were used at night to allow for continuous observation. A scan sampling method was used to record cat behaviors each 5 minutes. The recorded videos were subsequently reviewed and analyzed in each 5-minute scan sample, with tape playing 30 frames per second. At each 5-minute time point, each cat was categorized as anxious or relaxed. Aggression or litter box usage occurred between 5-minute periods were also noted. Because each scan sample is of 5-minute period, a total of 24 observations for each individual behavior are possible for each 2 hours. The instances of an individual behavior (An; n=1, 2, 3, . . . 24) in each 5-minute period were totaled for instances in each 2 hours (Bm=ΣAn, n=1, 2, 3, . . . 24; m=1, 2, 3, . . . 12) over 24 hours. The behavioral score for each 2-hour period is ΣAn/24 (n=1, 2, 3, . . . , 24). A behavioral score for a 24-hour period is ΣBm/12 (m=1, 2, 3, . . . 12). Among all behavior assessed, aggression, in-litter-box and anxiety were scored as yes or no during each 5 minutes (An=1 or 0; n=1, 2, 3, . . . 24). In addition, anxiety was measured as a percentage of the total time that the cat was experiencing anxiety. As such the anxiety related behavioral score for a 24-hour period is 0.347×ΣBm (%) (Bm=ΣAn(%), n=1, 2, 3, . . . 24; m=1, 2, 3, . . . 12), which reflects the percentage of time over 24 hours that the cats are experiencing anxiety. Moreover, when ranking cat pairs based on their level of aggression, the sum of the aggression scores of the individual cats in the pair was used to rank the cat pairs. Behavior data (behavioral scores) were further analyzed by Least Squares Analysis of variance using SAS (2011, SAS Inst., Inc., Cary, N.C.) software and the p-diff general linear model procedures to assess treatment differences within each time period. This statistical model included effects of treatment (TRT), cat-pair within treatment (TRT*CAT), time (HR), treatment by time (TRT*HR) and residual error (SE; used to test remaining effects). The previous study established that cats are attracted to litter treated with 2-methylbut-2-enal. In this study, 48 cats were used to determine the effect of litter treated with 2-methylbut-2-enal (RP) to the cat's various behaviors listed in Table 5. Litter was prepared in two batches, by mixing beads about 0.065″ in length both with and without 2-methylbut-2-enal. Blank beads were mixed thoroughly into one batch of litter so that the litter comprised about 3% (w/w) beads to form the control litter (CON). Similarly, beads containing a pheromone composition comprising 0.02% (w/w) 2-methylbut-2-enal (formed in accordance with Example 2 or 3) were mixed thoroughly into the other batch of litter so that the litter also comprised 3% (w/w) beads to form the treated litter (RP). Each batch of the litter was divided into 3 lb. aliquots that were ready to be tested. The 48 cats were randomly grouped into 24 same-sex pairs, which were divided into two groups with 12 pairs in each. The cats of each pair had either been housed individually or in groups of two previously, but had not been placed together prior to this study. As such, each cat was made sure to pair with an unfamiliar cat for the duration of the study. The first 12 pairs of two unfamiliar cats were tested over a 48-hour period. Subsequently, all chambers used were sanitized and aired out, and then the second group of 12 pair of cats was tested. Each pair of cats was placed in a kennel containing one food dish, one water dish, and one litter box. […]

C/C=C(\C)C=O [RP, 2-methylbut-2-enal]
reduction of anxiety of the cats in pairs (Day 1 untreated litter (21%) to Day 2 treated litter (12%)): ~50% | Average behavior score: Head in food/H2O dish (Day 2, RP litter (3% (w/w) beads with 0.02% (w/w) 2-methylbut-2-enal), 24 cat pairs, Day 1 Con 0.90): 1.05 | Average behavior score: Grooming other (Day 2, RP litter, 24 cat pairs, Day 1 Con 0.03): 0.01 | Average behavior score: In litter box - using (Day 2, RP litter, 24 cat pairs, Day 1 Con 0.07): 0.27 | Average behavior score: Neutral social interaction (Day 2, RP litter, 24 cat pairs, Day 1 Con 0.48): 0.33 | Average behavior score: Play (Day 2, RP litter, 24 cat pairs, Day 1 Con 0.65): 0.52 | Average behavior score: Grooming self (Day 2, RP litter, 24 cat pairs, Day 1 Con 0.70): 0.77 | Average behavior score: Lying/sitting - touching (Day 2, RP litter, 24 cat pairs, Day 1 Con 0.89): 0.98 | Average behavior score: Sleeping (Day 2, RP litter, 24 cat pairs, Day 1 Con 1.98): 2.71 | Average behavior score: In litter box - not using (Day 2, RP litter, 24 cat pairs, Day 1 Con 2.10): 2.73 | Average behavior score: Aggression (Day 2, RP litter, 24 cat pairs, Day 1 Con 3.00): 1.95 | Average behavior score: Locomotion (Day 2, RP litter, 24 cat pairs, Day 1 Con 3.19): 4.66 | Average behavior score: Lying/sitting - not touching (Day 2, RP litter, 24 cat pairs, Day 1 Con 17.0): 15.4 | Average behavior score: Anxiety (%) (Day 2, RP litter, 24 cat pairs, percentage of time over 24 hours, Day 1 Con 21.0): 12.0% | Average aggression score by pair, Day 2 (RP) (Pair 1 (M, M), rank 6, Day 1 (con) 2.92): 0.13 | Average aggression score by pair, Day 2 (RP) (Pair 2 (M, M), rank 24, Day 1 (con) 0.00): 0.00 | Average aggression score by pair, Day 2 (RP) (Pair 3 (M, M), rank 4, Day 1 (con) 6.33): 3.42 | Average aggression score by pair, Day 2 (RP) (Pair 4 (M, M), rank 3, Day 1 (con) 6.50): 0.08 | Average aggression score by pair, Day 2 (RP) (Pair 5 (M, M), rank 5, Day 1 (con) 3.58): 4.67 | Average aggression score by pair, Day 2 (RP) (Pair 6 (M, M), rank 13, Day 1 (con) 1.08): 0.13 | Average aggression score by pair, Day 2 (RP) (Pair 7 (F, F), rank 20, Day 1 (con) 0.04): 0.33 | Average aggression score by pair, Day 2 (RP) (Pair 8 (F, F), rank 14, Day 1 (con) 0.50): 0.88 | Average aggression score by pair, Day 2 (RP) (Pair 9 (F, F), rank 19, Day 1 (con) 0.08): 0.08 | Average aggression score by pair, Day 2 (RP) (Pair 10 (F, F), rank 2, Day 1 (con) 10.13): 3.25 | Average aggression score by pair, Day 2 (RP) (Pair 11 (F, F), rank 12, Day 1 (con) 1.63): 1.50 | Average aggression score by pair, Day 2 (RP) (Pair 12 (F, F), rank 23, Day 1 (con) 0.00): 0.00 | Average aggression score by pair, Day 2 (RP) (Pair 13 (M, M), rank 1, Day 1 (con) 27.00): 18.25 | Average aggression score by pair, Day 2 (RP) (Pair 14 (M, M), rank 8, Day 1 (con) 2.54): 2.58 | Average aggression score by pair, Day 2 (RP) (Pair 15 (M, M), rank 7, Day 1 (con) 2.54): 3.83 | Average aggression score by pair, Day 2 (RP) (Pair 16 (C, M), rank 11, Day 1 (con) 1.63): 0.71 | Average aggression score by pair, Day 2 (RP) (Pair 17 (M, M), rank 9, Day 1 (con) 2.46): 2.13 | Average aggression score by pair, Day 2 (RP) (Pair 18 (M, M), rank 10, Day 1 (con) 2.38): 1.88 | Average aggression score by pair, Day 2 (RP) (Pair 19 (M, M), rank 15, Day 1 (con) 0.33): 0.00 | Average aggression score by pair, Day 2 (RP) (Pair 20 (F, F), rank 22, Day 1 (con) 0.00): 0.21 | Average aggression score by pair, Day 2 (RP) (Pair 21 (F, F), rank 18, Day 1 (con) 0.08): 0.92 | Average aggression score by pair, Day 2 (RP) (Pair 22 (F, F), rank 16, Day 1 (con) 0.17): 0.13 | Average aggression score by pair, Day 2 (RP) (Pair 23 (F, F), rank 17, Day 1 (con) 0.08): 1.00 | Average aggression score by pair, Day 2 (RP) (Pair 24 (F, F), rank 21, Day 1 (con) 0.00): 0.63 | litter box weight, Change (RP) (RP after minus RP before, CON change 0.02): 0.11 | Changes in litter box weights, % difference (RP change versus CON change): 438% | litter box weight, RP after (after 24 hours of use, RP before 2.1): 2.21 | reduction of aggression from Day 1 to Day 2 (aggression score 3.0 to 1.95 after exposure to RP litter): 68.3% | increase of litter box use (score 0.07 (Day 1 CON) to 0.27 (Day 2 RP)): 386%
